Data as given in publication PMC10313368 (The Journal of Clinical Investigation, 2023).

Test system: HUVECs
Test: mRNA angiogenesis array (TaqMan Array qPCR) in HUVECs
Assay type: cell-based, human
Parameters: ANG,RNASE4, array raw value (Figure 8B, well A10) / GAPDH, array raw value (Figure 8B, well A2) / EDIL3, array raw value (Figure 8B, well B2) / FGF1, array raw value (Figure 8B, well B4) / TIMP2, array raw value (Figure 8B, well E10) / SEMA3F, array raw value (Figure 8B, well E6) / CEACAM1, array raw value (Figure 8B, well F2) / LYVE1, array raw value (Figure 8B, well F6): scale not given here
Details: HUVEC, 1%O2+32-134D
Protocol: Angiogenesis array. Total RNA was isolated from MIO-MI cells (8 hours) and HUVECs (16 […]
cDNA was prepared with QuantiTect® Reverse Transcription Kit (Qiagen, Cat# 205311). RT-qPCR assay was performed with pre-configured TaqMan Array 96-Well FAST Plate for human angiogenic gene expression (Applied Biosystems, Inc) following the manufacture’s protocol. Each plate contains pre-defined genes including 18S, GAPDH and HPRT1 endogenous controls.
TaqMan Array plates were prepared by loading on each well 5 μl of cDNA sample (30 ng) with nuclease-free water and 5 μl of TaqMan™ Fast Advanced Master Mix (Applied Biosystem, Cat# […]
4444554). The reaction was performed using the QuantStudio™ 3 Flex Real‐Time PCR System as follows: 2 minutes at 50°C (stage 1); 10 minutes at 95°C (stage 2); 15 seconds at 95°C and 1 minutes at 60°C for 40 cycles (stage 3). The data were analyzed by using HPRT1 as endogenous […]
The clustering heatmaps were produced with “pheatmap” library in R with scale = row and clustering method = complete.
HUVEC cells, Euclidean distance was used to quantify the difference in qPCR screening. The Euclidean distance was calculated using “dist” function from R’s default stat library that measures the distance between 2 vectors (i.e., total qPCR expression values in control and treatment). In […]

With `Brc1ccc2c(-c3csc(-c4c[nH]c5c(Br)cccc45)n3)c[nH]c2c1` [32-134D, 4-(6-bromo-1H-indol-3-yl)-2-(7-bromo-1H-indol-3-yl)thiazole] as the compound, how does the “18S, array raw value (Figure 8B, well A1)” value read?
Its value is 20.1818.

And the “ADAMTS1, array raw value (Figure 8B, well D10)” value?
The value was 29.7994.

What about the “AMOT, array raw value (Figure 8B, well D12)” value of the same compound?
The value was 39.0386.

And the “ANG,RNASE4, array raw value (Figure 8B, well A10)” value?
Its value is 28.1406.

And the “ANGPT1, array raw value (Figure 8B, well A11)” value?
The value was 30.8384.

And the “ANGPT2, array raw value (Figure 8B, well A12)” value?
Its value is 32.8047.

What about the “ANGPTL2, array raw value (Figure 8B, well E12)” value of the same compound?
Its value is 30.2341.

What about the “ANGPTL4, array raw value (Figure 8B, well H5)” value of the same compound?
The value was 21.86.

What about the “CD44, array raw value (Figure 8B, well E1)” value of the same compound?
The value was 23.3811.

What about the “CDH5, array raw value (Figure 8B, well E2)” value of the same compound?
Its value is 24.9237.

What about the “CEACAM1, array raw value (Figure 8B, well F2)” value of the same compound?
The value was 29.9396.

And the “COL4A1, array raw value (Figure 8B, well G2)” value?
The value was 30.6479.

What about the “COL4A2, array raw value (Figure 8B, well G3)” value of the same compound?
Its value is 28.7346.

What about the “COL18A1, array raw value (Figure 8B, well G6)” value of the same compound?
Its value is 29.7073.

And the “CSF3, array raw value (Figure 8B, well H1)” value?
The value was 33.4203.

And the “CTGF, array raw value (Figure 8B, well C10)” value?
The value was 23.3834.

What about the “CXCL2, array raw value (Figure 8B, well E3)” value of the same compound?
The value was 30.6168.

What about the “CXCL10, array raw value (Figure 8B, well D5)” value of the same compound?
The value was 36.21.

And the “EDIL3, array raw value (Figure 8B, well B2)” value?
Its value is 26.4682.

And the “EPHB2, array raw value (Figure 8B, well B3)” value?
Its value is 28.307.

What about the “FGF1, array raw value (Figure 8B, well B4)” value of the same compound?
Its value is 29.8889.

What about the “FGF2, array raw value (Figure 8B, well B5)” value of the same compound?
Its value is 30.0294.

What about the “FIGF, array raw value (Figure 8B, well F12)” value of the same compound?
Its value is 33.3841.

And the “FLT1, array raw value (Figure 8B, well E5)” value?
The value was 30.21.

And the “FN1, array raw value (Figure 8B, well G7)” value?
Its value is 28.5669.

And the “FOXC2, array raw value (Figure 8B, well G1)” value?
The value was 27.8513.

And the “FST, array raw value (Figure 8B, well B7)” value?
The value was 31.5936.

And the “GAPDH, array raw value (Figure 8B, well A2)” value?
The value was 20.3521.

And the “GRN, array raw value (Figure 8B, well H2)” value?
Its value is 22.2393.

What about the “GUSB, array raw value (Figure 8B, well A4)” value of the same compound?
Its value is 25.0498.

What about the “HEY1, array raw value (Figure 8B, well F3)” value of the same compound?
The value was 34.3049.

And the “HPRT1, array raw value (Figure 8B, well A3)” value?
The value was 25.0367.

What about the “HSPG2, array raw value (Figure 8B, well G5)” value of the same compound?
The value was 27.52.

And the “IFNB1, array raw value (Figure 8B, well D3)” value?
Its value is 35.432.

What about the “IL8, array raw value (Figure 8B, well B9)” value of the same compound?
The value was 26.4133.

What about the “IL12A, array raw value (Figure 8B, well D6)” value of the same compound?
Its value is 34.4259.

And the “ITGA4, array raw value (Figure 8B, well D2)” value?
Its value is 28.3072.

And the “ITGAV, array raw value (Figure 8B, well F4)” value?
Its value is 26.1181.

What about the “ITGB3, array raw value (Figure 8B, well H6)” value of the same compound?
Its value is 25.3974.

And the “KDR, array raw value (Figure 8B, well F10)” value?
The value was 30.1984.

And the “LYVE1, array raw value (Figure 8B, well F6)” value?
The value was 34.6146.

What about the “MDK, array raw value (Figure 8B, well B11)” value of the same compound?
Its value is 23.8862.

What about the “MMP2, array raw value (Figure 8B, well A9)” value of the same compound?
Its value is 21.2904.

And the “NRP1, array raw value (Figure 8B, well H10)” value?
The value was 28.4453.

And the “NRP2, array raw value (Figure 8B, well F9)” value?
Its value is 25.1088.

And the “PDGFB, array raw value (Figure 8B, well C1)” value?
The value was 28.0672.
